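Protocol summary: plate cells (96-well), add compound at 5 concentrations, incubate 48 h, interpolate endpoints linearly. TGI marks complete inhibition of growth.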
Assays:
Test in all cases: NCI-60 cell line screen, 48 h
[1] = system: HCT-15 colon
[2] = system: HCC-2998 colon
[3] = system: NCI-H23 lung
[4] = system: DU-145 prostate
[5] = system: SNB-19 CNS
[6] = system: SK-MEL-28 melanoma
[7] = system: HCT-116 colon
[8] = system: NCI-H522 lung
[9] = system: SK-MEL-5 melanoma
[10] = system: PC-3 prostate
[11] = system: LOX IMVI melanoma
[12] = system: NCI/ADR-RES ovarian
[13] = system: ACHN renal
[14] = system: SW-620 colon
[15] = system: U251 CNS
[16] = system: M14 melanoma
[17] = system: UACC-62 melanoma
[18] = system: SF-539 CNS
[19] = system: KM12 colon
[20] = system: SF-295 CNS
[21] = system: MDA-N
[22] = system: RXF 393 renal
[23] = system: T-47D breast
[24] = system: OVCAR-8 ovarian
[25] = system: SK-OV-3 ovarian
[26] = system: HT29 colon
[27] = system: SR leukemia
[28] = system: IGROV1 ovarian
[29] = system: SK-MEL-2 melanoma
[30] = system: COLO 205 colon
[31] = system: UACC-257 melanoma
[32] = system: SF-268 CNS
[33] = system: EKVX NSCLC
[34] = system: MDA-MB-435
[35] = system: A549 NSCLC
[36] = system: HL-60(TB) leukemia
[37] = system: OVCAR-3 ovarian
[38] = system: A498 renal
[39] = system: HS 578T breast
[40] = system: K-562 leukemia
[41] = system: HOP-62 NSCLC
[42] = system: MCF7 breast
[43] = system: SNB-75 CNS
[44] = system: MDA-MB-231 breast
[45] = system: 786-0 renal
[46] = system: OVCAR-4 ovarian
[47] = system: OVCAR-5 ovarian
[48] = system: HOP-92 NSCLC
[49] = system: NCI-H226 lung
[50] = system: CCRF-CEM leukemia
[51] = system: CAKI-1 renal
[52] = system: NCI-H460 lung
[53] = system: SN12C renal
[54] = system: MALME-3M melanoma
[55] = system: MOLT-4 leukemia
[56] = system: TK-10 renal
[57] = system: BT-549 breast
[58] = system: RPMI-8226 leukemia
[59] = system: UO-31 renal

Measured: TGI

COc1cc2c(cc1OC)C1CCc3ccccc3CN1CC2 (configuration not stated)
not listed: [57] | [58] | [59]
> 100 µM: all other assays above

CC1=CC2=C(C(N)=O)C(=O)OC2(C)C(c2ccccc2)C1 (configuration not stated)
not listed: [2] | [3] | [9] | [22] | [23] | [30] | [50] | [51]
> 100 µM: all other assays above

— PubChem BioAssay (NCI)
